Reference: US20040077636A1, “Restricting reinstatement of drug use” (priority 2000, published 2004)
“Also recorded” adds a separate entry of the source.

Columns and labels:
Male Wistar rats [1] = assay: Operant alcohol self-administration; assay type: in vivo; details: average of two consecutive sessions, vs saline
Experimental: Animals: Male Wistar rats (Charles River, Montreal; weighing about 150-200 g. at the start of the experiments) were individually housed. Food and water were freely available in the home cages for 23 h/day. Food was not available during the 30 to 60 min daily session (see below). The temperature was maintained at 21±1° C. and the lights were on from 7 a.m. to 7 p.m. Rats were initially trained to consume alcohol in a limited access procedure (Linseman, 1987). The rats were given access to an alcohol solution and water in modified Richter tubes for 30 min/day in drinking cages. Alcohol solutions were provided in escalating concentrations: 3% w/v for the first 5 days 6% for the next 8 days and 12% for the last 10-12 days. Rats that consumed less than 0.4 g/kg per session during the last 10-12 days were excluded. All procedures were done in accordance with the guidelines of the Canadian Council on Animals Care and the ‘principle of laboratories animal care’ (NIH publication No. 85-23, revised 1985), and were approved by the local Animal Care Committee. […]
Analysis of variance with or without repeated measures were employed to analyse the data. […] In the first experiment, the average amounts of alcohol self-administered over a period of two days were used to quantify the effects of lofexidine treatment on alcohol self-administration. […]

Male Wistar rats [2] = assay: Extinction of alcohol self-administration behaviour; assay type: in vivo; details: for responding on the active lever, second day of extinction: among the three groups
Experimental: Animals: Male Wistar rats (Charles River, Montreal; weighing about 150-200 g. at the start of the experiments) were individually housed. Food and water were freely available in the home cages for 23 h/day. Food was not available during the 30 to 60 min daily session (see below). The temperature was maintained at 21±1° C. and the lights were on from 7 a.m. to 7 p.m. Rats were initially trained to consume alcohol in a limited access procedure (Linseman, 1987). The rats were given access to an alcohol solution and water in modified Richter tubes for 30 min/day in drinking cages. Alcohol solutions were provided in escalating concentrations: 3% w/v for the first 5 days 6% for the next 8 days and 12% for the last 10-12 days. Rats that consumed less than 0.4 g/kg per session during the last 10-12 days were excluded. All procedures were done in accordance with the guidelines of the Canadian Council on Animals Care and the ‘principle of laboratories animal care’ (NIH publication No. 85-23, revised 1985), and were approved by the local Animal Care Committee.
Apparatus: The alcohol self-administration system was built locally. Each operant chamber was equipped with two levers, symmetrically centered on the side panel. Responding on one lever (the active lever) activated the infusion pump (Razel Sci. Stamford, Conn., USA). […] During the infusion, a stimulus light above the active lever was turned on for 6 s. […] The grid floor of the operant cambers was connected to electric shock generators (Med Associates, Georgia, Vt., USA).
Training and extinction of alcohol self-administration: Operant self-administration of alcohol was initiated on a fixed ration-1 schedule of reinforcement (FR-1, each lever press is reinforced) for 60 min per day for 5-7 days per week. Responding on the FR-1 schedule was maintained for 10-14 sessions. The requirement for alcohol delivery was then increased to FR-2 for five sessions. Subsequently, the schedule requirement was increased to an FR-3 schedule for 8-12 days until the rats obtained three days of stable drug taking (variability of less than 20% of the mean). […]

Male Wistar rats [3] = assay: Footshock stress-induced reinstatement of alcohol seeking; assay type: in vivo; details: for reinstatement of alcohol seeking (responses on the active lever after footshock): vs saline, p<0.05
Experimental: Animals: Male Wistar rats (Charles River, Montreal; weighing about 150-200 g. at the start of the experiments) were individually housed. Food and water were freely available in the home cages for 23 h/day. Food was not available during the 30 to 60 min daily session (see below). The temperature was maintained at 21±1° C. and the lights were on from 7 a.m. to 7 p.m. Rats were initially trained to consume alcohol in a limited access procedure ([…], 1987). The rats were given access to an alcohol solution and water in modified Richter tubes for 30 min/day in drinking cages. Alcohol solutions were provided in escalating concentrations: 3% w/v for the first 5 days 6% for the next 8 days and 12% for the last 10-12 days. Rats that consumed less than 0.4 g/kg per session during the last 10-12 days were excluded. All procedures were done in accordance with the guidelines of the Canadian Council on Animals Care and the 'principle of laboratories animal care' (NIH publication No. 85-23, revised 1985), and were approved by the local Animal Care Committee. Apparatus: The alcohol self-administration system was built locally. Each operant chamber was equipped with two levers, symmetrically centered on the side panel. Responding on one lever (the active lever) activated the infusion pump (Razel Sci. Stamford, Conn., USA). […] During the infusion, a stimulus light above the active lever was turned on for 6 s. […] The grid floor of the operant cambers was connected to electric shock generators (Med Associates, Georgia, Vt., USA). Training and extinction of alcohol self-administration: Operant self-administration of alcohol was initiated on a fixed ration-1 schedule of reinforcement (FR-1, each lever press is reinforced) for 60 min per day for 5-7 days per week. Responding on the FR-1 schedule was maintained for 10-14 sessions. The requirement for alcohol delivery was then increased to FR-2 for five sessions. Subsequently, the schedule requirement was increased to an FR-3 schedule for 8-12 days until the rats obtained three days of stable drug taking (variability of less than 20% of the mean). During extinction sessions, presses on the previously active lever had no programmable consequences. […] Test for Reinstatement: Tests were conducted under extinction conditions. Intermittent footshock (0.8 mA; 0.5 s ON; a mean OFF period of 40 s; a range of 10-70 s) was administered for a period of 10 min just prior to the test sessions. Footshock was delivered through a scrambler to the stainless steel grid floor of the operant chambers. […] When the animals achieved extinction criterion, the effect of pre-treatment with lofexidine on footshock stress-induced reinstatement of alcohol seeking was determined as described above. […]

[4] = Footshock stress-induced reinstatement of cocaine seeking; assay type: in vivo; details: 0.150 mg/kg or 0.2 mg/kg
NE release = details: doses employed in the present study; cited from earlier work
[5] = system: imidazoline-type 1 receptors; details: cited from earlier work
[6] = in vivo; cited from earlier work
[7] = humans; cited from earlier work
[8] = pre-treatment; literature reports; cited from earlier work
heroin-addicted rats = details: Euro. J. Neurosci. 12, 292-302, 2000; cited from earlier work

CC(Oc1c(Cl)cccc1Cl)C1=NCCN1 (stereo not drawn) [lofexidine, Lofexidine]
alcohol self-administration (amount of alcohol self-administered during 1-hour session) (Male Wistar rats [1]; 0.05 mg/kg IP 1 h before session): no significant differences; also recorded: did not reach statistical significance
alcohol self-administration (amount of alcohol self-administered during 1-hour session) (Male Wistar rats [1]; 0.1 mg/kg IP 1 h before session, p<0.05): significantly lower; also recorded: significantly suppresses
responding on the active lever, second day of extinction (Male Wistar rats [2]; 0.05 mg/kg IP daily): no significant differences
responding on the active lever, first day of extinction (Male Wistar rats [2]; 0.1 mg/kg IP daily 1 h before session, vs saline and lower dose group): significantly lower; also recorded: significant decrease
responding on the active lever, second day of extinction (Male Wistar rats [2]; 0.1 mg/kg IP daily): no significant differences
reinstatement of alcohol seeking (responses on the active lever after footshock) (Male Wistar rats [3]; 0.05 mg/kg IP 1 h before 10 min intermittent footshock): significantly suppressed
reinstatement of alcohol seeking (responses on the active lever after footshock) (Male Wistar rats [3]; 0.1 mg/kg IP 1 h before 10 min intermittent footshock): significantly suppressed
reinstatement of alcohol seeking (responses on the active lever after footshock) (Male Wistar rats [3]; 0.2 mg/kg IP 1 h before 10 min intermittent footshock): significantly suppressed
reinstatement of alcohol seeking (Male Wistar rats [3]; doses ranging from 0.05 to 0.2 mg/kg, intermittent footshock stress): completely suppressed
footshock stress-induced reinstatement of cocaine seeking [4]: attenuation; also recorded: suppressed
stress induced NE release in the pre-frontal cortex and amygdala (NE release): block
affinity for imidazoline-type 1 (I2) receptors [5]: high affinity
hypotensive effect [6]: minimal hypotensive effect
adverse side effects compared with clonidine, in particular hypotensive effects [7]: fewer adverse side effects

N=C(N)NC(=O)Cc1c(Cl)cccc1Cl [guanfacine]
alcohol consumption [8]: reduction in alcohol consumption

Cc1csc(Cl)c1NC1=NCCN1 [tiamedine]
alcohol consumption [8]: reduction in alcohol consumption

Clc1cccc(Cl)c1N=C1NCCN1 [clonidine]
alcohol consumption [8]: reduction in alcohol consumption
foot-shock-induced reinstatement of heroin-seeking (heroin-addicted rats): effective
